Experimental data as given in PubChem BioAssay AID248 (DTP/NCI, 2004).
Several values for one entry are separate records, joined by “and”; a condition that tells them apart may be missing. Identical values can stand only once. Inconclusive results and toxic doses are left out. No stated cut-off is given here; in the data, active means T/C of 150% or more; inactive means T/C below 125%.

Tested on: L1210 leukemia ip in BDF1 mice, survival T/C
Assay: NCI In Vivo Anticancer Drug Screen. Data for tumor model L1210 Leukemia (intraperitoneal) in B6D2F1 (BDF1) mice
Conditions: endpoint: mean survival time, higher = longer survival
Summary of the method: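 Ratio derived from survival: compound-dosed mice over vehicle-dosed mice, all bearing a transplantable tumor.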

[1] = dose: 100.0 mg/kg/injection, schedule: Q04DX003 (ip), vehicle: saline
[2] = dose: 200.0 mg/kg/injection, schedule: Q04DX003 (ip), vehicle: saline
[3] = dose: 400.0 mg/kg/injection, schedule: Q04DX003 (ip), vehicle: saline
[4] = dose: 25.0 mg/kg/injection, schedule: Q04DX002 (ip), vehicle: saline with Tween-80
[5] = dose: 50.0 mg/kg/injection, schedule: Q04DX002 (ip), vehicle: saline with Tween-80
[6] = dose: 100.0 mg/kg/injection, schedule: Q04DX002 (ip), vehicle: saline with Tween-80
[7] = dose: 75.0 mg/kg/injection, schedule: Q01DX001 (ip), vehicle: other
[8] = dose: 100.0 mg/kg/injection, schedule: Q04DX003 (ip), vehicle: saline with Tween-80
[9] = dose: 200.0 mg/kg/injection, schedule: Q04DX003 (ip), vehicle: saline with Tween-80
[10] = dose: 100.0 mg/kg/injection, schedule: Q01DX009 (ip), vehicle: Klucel (hydroxypropylcellulose) (HPC)
[11] = dose: 200.0 mg/kg/injection, schedule: Q01DX009 (ip), vehicle: Klucel (hydroxypropylcellulose) (HPC)
[12] = dose: 400.0 mg/kg/injection, schedule: Q01DX009 (ip), vehicle: Klucel (hydroxypropylcellulose) (HPC)
[13] = dose: 100.0 mg/kg/injection, schedule: Q01DX001 (ip), vehicle: carboxymethylcellulose (CMC)
[14] = dose: 100.0 mg/kg/injection, schedule: Q04DX002 (ip), vehicle: Klucel (hydroxypropylcellulose) (HPC)
[15] = dose: 200.0 mg/kg/injection, schedule: Q04DX002 (ip), vehicle: Klucel (hydroxypropylcellulose) (HPC)
[16] = dose: 400.0 mg/kg/injection, schedule: Q04DX002 (ip), vehicle: Klucel (hydroxypropylcellulose) (HPC)
[17] = dose: 100.0 mg/kg/injection, schedule: Q01DX009 (ip), vehicle: saline with Tween-80
[18] = dose: 200.0 mg/kg/injection, schedule: Q01DX009 (ip), vehicle: saline with Tween-80

Measured: T/C

COC1c2c(nc3ccccc3c2C(N)=O)-c2ccccc2C1(C)C (stereo not given)
inactive: [1] 89 % of control | [2] 103 % of control | [3] 94 % of control

COc1cc2c(cc1OC)C(CC(C)C)=[N+](C)CC2
inactive: [4] 93 % of control | [5] 93 % of control | [6] 93 % of control

CCCCC(CCCC)NCCOC(=O)c1ccc(N)cc1
inactive: [7] 102 % of control

c1ccc(Cn2ccc3ccncc32)cc1
inactive: [7] 96 % of control

N#CC1(C(O)c2ccccc2)C=Cc2ccccc2N1C(=O)c1ccccc1 (stereo not given)
inactive: dose: 100.0 mg/kg/injection, schedule: Q01DX001 (ip), vehicle: steriod suspending solution 98 % of control | dose: 400.0 mg/kg/injection, schedule: Q01DX001 (ip), vehicle: steriod suspending solution 95 % of control

COC1OC(CN2C(=O)c3ccccc3C2=O)C2OC(C)(C)OC12 (stereo not given)
inactive: [8] 106 % of control | [9] 97 % of control | dose: 400.0 mg/kg/injection, schedule: Q04DX003 (ip), vehicle: saline with Tween-80 96 % of control

CCN(CC)CN(CC)CC
inactive: [4] 103 % of control | [5] 100 % of control | [6] 98 % of control and 103 % of control

O=[N+]([O-])c1cccc([N+](=O)[O-])c1/C=N/Nc1nnc(N/N=C/c2c([N+](=O)[O-])cccc2[N+](=O)[O-])c2ccccc12
inactive: dose: 50.0 mg/kg/injection, schedule: Q01DX001 (ip), vehicle: saline 100 % of control | dose: 100.0 mg/kg/injection, schedule: Q01DX001 (ip), vehicle: saline 103 % of control | dose: 200.0 mg/kg/injection, schedule: Q01DX001 (ip), vehicle: saline 100 % of control | dose: 400.0 mg/kg/injection, schedule: Q01DX001 (ip), vehicle: saline 100 % of control

C=CCOc1ccc2c(C)cc(=O)oc2c1C
inactive: dose: 100.0 mg/kg/injection, schedule: Q01DX008 (ip), vehicle: Klucel (hydroxypropylcellulose) (HPC) 93 % of control | [10] 94 % of control | dose: 100.0 mg/kg/injection, schedule: Q04DX003 (ip), vehicle: Klucel (hydroxypropylcellulose) (HPC) 96 % of control | dose: 200.0 mg/kg/injection, schedule: Q01DX008 (ip), vehicle: Klucel (hydroxypropylcellulose) (HPC) 88 % of control | [11] 96 % of control | dose: 200.0 mg/kg/injection, schedule: Q04DX003 (ip), vehicle: Klucel (hydroxypropylcellulose) (HPC) 96 % of control | dose: 400.0 mg/kg/injection, schedule: Q01DX008 (ip), vehicle: Klucel (hydroxypropylcellulose) (HPC) 86 % of control | [12] 97 % of control | dose: 400.0 mg/kg/injection, schedule: Q04DX003 (ip), vehicle: Klucel (hydroxypropylcellulose) (HPC) 96 % of control

C[N+]1=C(/C=C\c2ccc3cccnc3c2O)C(C)(C)c2cc(F)ccc21
inactive: [13] 93 % of control | dose: 200.0 mg/kg/injection, schedule: Q01DX001 (ip), vehicle: carboxymethylcellulose (CMC) 95 % of control | dose: 400.0 mg/kg/injection, schedule: Q01DX001 (ip), vehicle: carboxymethylcellulose (CMC) 88 % of control

CCOC(=O)CNc1cccc(Cl)c1
inactive: [14] 107 % of control | [15] 103 % of control | [16] 96 % of control

O=C(Nc1ccc(F)cc1)Nc1cc(C(F)(F)F)ccc1Cl
inactive: dose: 50.0 mg/kg/injection, schedule: Q01DX009 (ip), vehicle: Klucel (hydroxypropylcellulose) (HPC) 107 % of control | [10] 92 % of control | [11] 92 % of control

CC(=O)On1nnc2c(Cl)c(Cl)c(Cl)c(Cl)c21
inactive: [1] 94 % of control | [2] 94 % of control | [3] 87 % of control

c1ccc(Nc2nc3ccccc3o2)cc1
inactive: dose: 100.0 mg/kg/injection, schedule: Q01DX001 (ip), vehicle: Klucel (hydroxypropylcellulose) (HPC) 93 % of control | [10] 92 % of control | dose: 200.0 mg/kg/injection, schedule: Q01DX001 (ip), vehicle: Klucel (hydroxypropylcellulose) (HPC) 89 % of control | [11] 95 % of control | dose: 400.0 mg/kg/injection, schedule: Q01DX001 (ip), vehicle: Klucel (hydroxypropylcellulose) (HPC) 86 % of control | [12] 94 % of control

COc1cccc2c1C1c3ccccc3C(O)CC1CC2O (stereo not given)
inactive: dose: 37.5 mg/kg/injection, schedule: Q01DX001 (ip), vehicle: Klucel (hydroxypropylcellulose) (HPC) 89 % of control | dose: 75.0 mg/kg/injection, schedule: Q01DX001 (ip), vehicle: Klucel (hydroxypropylcellulose) (HPC) 104 % of control | dose: 150.0 mg/kg/injection, schedule: Q01DX001 (ip), vehicle: Klucel (hydroxypropylcellulose) (HPC) 91 % of control

CC(=O)Nc1cccc(C)c1C
inactive: [14] 107 % of control | [15] 100 % of control | [16] 103 % of control

S=c1c2[nH]cnc2ncn1C1CCCC1
inactive: dose: 5.0 mg/kg/injection, schedule: Q01DX001 (ip), vehicle: other 100 % of control | dose: 10.0 mg/kg/injection, schedule: Q01DX001 (ip), vehicle: other 106 % of control | dose: 15.0 mg/kg/injection, schedule: Q01DX009 (ip), vehicle: saline with Tween-80 119 % of control | dose: 20.0 mg/kg/injection, schedule: Q01DX001 (ip), vehicle: other 103 % of control | dose: 33.5 mg/kg/injection, schedule: Q01DX009 (ip), vehicle: saline with Tween-80 104 % of control

CCC(CC)(CCN)c1ccccc1
inactive: dose: 50.0 mg/kg/injection, schedule: Q01DX001 (ip), vehicle: carboxymethylcellulose (CMC) 90 % of control | [13] 93 % of control

O=C1OC2CCCCC2/C1=C/N1CCCCC1 (stereo not given)
inactive: dose: 5.0 mg/kg/injection, schedule: Q04DX002 (ip), vehicle: Klucel (hydroxypropylcellulose) (HPC) 92 % of control | dose: 10.0 mg/kg/injection, schedule: Q04DX002 (ip), vehicle: Klucel (hydroxypropylcellulose) (HPC) 102 % of control | dose: 20.0 mg/kg/injection, schedule: Q04DX002 (ip), vehicle: Klucel (hydroxypropylcellulose) (HPC) 107 % of control | dose: 40.0 mg/kg/injection, schedule: Q04DX002 (ip), vehicle: Klucel (hydroxypropylcellulose) (HPC) 93 % of control | dose: 50.0 mg/kg/injection, schedule: Q04DX002 (ip), vehicle: Klucel (hydroxypropylcellulose) (HPC) 103 % of control | [15] 102 % of control and 103 % of control | [16] 88 % of control

Cc1cc(OC(=O)Nc2ccccc2C(F)(F)F)cc(C)c1Cl
inactive: [17] 109 % of control | [6] 91 % of control | [18] 102 % of control | dose: 200.0 mg/kg/injection, schedule: Q04DX002 (ip), vehicle: saline with Tween-80 95 % of control | dose: 400.0 mg/kg/injection, schedule: Q04DX002 (ip), vehicle: saline with Tween-80 98 % of control

CCC1(CC)C(=O)C=CNC1=O
inactive: dose: 50.0 mg/kg/injection, schedule: Q04DX003 (ip), vehicle: saline with Tween-80 95 % of control | [8] 107 % of control | [9] 102 % of control

O=C(c1ccccc1)C(Nc1ccccn1)c1ccccc1 (stereo not given)
inactive: dose: 75.0 mg/kg/injection, schedule: Q01DX001 (ip), vehicle: carboxymethylcellulose (CMC) 96 % of control | dose: 150.0 mg/kg/injection, schedule: Q01DX001 (ip), vehicle: carboxymethylcellulose (CMC) 94 % of control | dose: 300.0 mg/kg/injection, schedule: Q01DX001 (ip), vehicle: carboxymethylcellulose (CMC) 94 % of control

O=C(O)CCCc1ccc([N+](=O)[O-])cc1Cl
inactive: [17] 103 % of control | [18] 105 % of control
